Here are results for ten compounds from ChEMBL document CHEMBL1135173, “Discovery of substituted 3,4-diphenyl-thiazoles as a novel class of monoamine transporter inhibitors through 3-D pharmacophore search using a new pharmacophore model derived from mazindol” (Bioorg Med Chem Lett, 2002).

The target of experiment [1] is Monoamine transporters; serotonin & dopamine (Rattus norvegicus) (UniProt P31652+P23977). The experiment in a line: Selectivity ratio towards Serotonin and to that of dopamine transporter. It counts as protein assay.
Sequence of Monoamine transporters; serotonin & dopamine (Rattus norvegicus) (P23977 whole entry, looked up): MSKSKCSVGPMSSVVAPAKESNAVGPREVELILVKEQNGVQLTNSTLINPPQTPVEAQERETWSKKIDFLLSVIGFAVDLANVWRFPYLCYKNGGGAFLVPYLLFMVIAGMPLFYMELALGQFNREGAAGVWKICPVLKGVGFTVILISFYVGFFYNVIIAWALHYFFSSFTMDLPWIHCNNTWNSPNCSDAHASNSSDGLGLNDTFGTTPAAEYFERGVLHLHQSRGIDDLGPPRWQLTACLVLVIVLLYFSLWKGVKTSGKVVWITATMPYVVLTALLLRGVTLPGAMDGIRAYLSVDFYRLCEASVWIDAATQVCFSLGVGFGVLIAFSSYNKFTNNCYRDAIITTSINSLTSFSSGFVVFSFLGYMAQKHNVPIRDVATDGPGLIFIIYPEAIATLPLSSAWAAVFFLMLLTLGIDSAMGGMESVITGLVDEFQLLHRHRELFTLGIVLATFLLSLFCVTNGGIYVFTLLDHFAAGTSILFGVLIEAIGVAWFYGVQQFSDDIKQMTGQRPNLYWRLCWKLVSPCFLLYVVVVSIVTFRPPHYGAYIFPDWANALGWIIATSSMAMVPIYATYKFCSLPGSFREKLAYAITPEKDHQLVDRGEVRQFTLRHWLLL
Sequence of Monoamine transporters; serotonin & dopamine (Rattus norvegicus) (P31652 whole entry, looked up): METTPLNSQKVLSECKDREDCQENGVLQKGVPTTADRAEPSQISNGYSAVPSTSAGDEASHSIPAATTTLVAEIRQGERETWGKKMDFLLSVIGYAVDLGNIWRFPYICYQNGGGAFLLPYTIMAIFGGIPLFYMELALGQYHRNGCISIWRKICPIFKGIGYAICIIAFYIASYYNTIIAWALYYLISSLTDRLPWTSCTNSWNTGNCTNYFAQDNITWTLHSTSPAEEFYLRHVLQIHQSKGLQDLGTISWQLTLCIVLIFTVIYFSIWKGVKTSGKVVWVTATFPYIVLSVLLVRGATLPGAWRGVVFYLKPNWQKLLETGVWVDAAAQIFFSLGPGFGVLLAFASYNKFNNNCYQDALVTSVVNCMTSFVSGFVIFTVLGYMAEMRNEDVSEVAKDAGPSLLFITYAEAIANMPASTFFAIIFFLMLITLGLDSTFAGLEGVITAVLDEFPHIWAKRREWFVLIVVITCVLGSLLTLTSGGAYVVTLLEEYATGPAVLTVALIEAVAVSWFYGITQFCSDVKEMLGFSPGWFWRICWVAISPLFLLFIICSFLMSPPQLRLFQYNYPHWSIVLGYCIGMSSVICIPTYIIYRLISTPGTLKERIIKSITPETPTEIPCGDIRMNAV
Experiment [2] is filed under the species Rattus norvegicus. The experiment can be described thus: Compound was tested for the inhibition of [3H]-DA reuptake into rat striatal tissue. It counts as functional, Striatum.
Experiment [3] concerns the target Sodium-dependent serotonin transporter (Rattus norvegicus, UniProt P31652). The experiment in a line: Compound was tested for the inhibition of serotonin [3H]SER reuptake into rat forebrain membranes. It counts as cell membranes, Membrane.
For experiment [4], the target named is Sodium-dependent dopamine transporter (Rattus norvegicus, UniProt P23977). The experiment in a line: Tested for the ability to displace [3H]WIN-35 428 binding to dopamine transporter (DAT) in rat striatal tissue. The format is tissue-based, Striatum.
Sequence of Sodium-dependent dopamine transporter (P23977 whole entry): as the sequence (P23977 whole entry, looked up) above
In experiment [5] the target is Norepinephrine transporter (Rattus norvegicus) (UniProt Q9WTR4). The experiment in a line: Selectivity ratio towards Norepinephrine and to that of serotonin transporter.
Sequence of Norepinephrine transporter (Rattus norvegicus) (Q9WTR4 as listed by the source): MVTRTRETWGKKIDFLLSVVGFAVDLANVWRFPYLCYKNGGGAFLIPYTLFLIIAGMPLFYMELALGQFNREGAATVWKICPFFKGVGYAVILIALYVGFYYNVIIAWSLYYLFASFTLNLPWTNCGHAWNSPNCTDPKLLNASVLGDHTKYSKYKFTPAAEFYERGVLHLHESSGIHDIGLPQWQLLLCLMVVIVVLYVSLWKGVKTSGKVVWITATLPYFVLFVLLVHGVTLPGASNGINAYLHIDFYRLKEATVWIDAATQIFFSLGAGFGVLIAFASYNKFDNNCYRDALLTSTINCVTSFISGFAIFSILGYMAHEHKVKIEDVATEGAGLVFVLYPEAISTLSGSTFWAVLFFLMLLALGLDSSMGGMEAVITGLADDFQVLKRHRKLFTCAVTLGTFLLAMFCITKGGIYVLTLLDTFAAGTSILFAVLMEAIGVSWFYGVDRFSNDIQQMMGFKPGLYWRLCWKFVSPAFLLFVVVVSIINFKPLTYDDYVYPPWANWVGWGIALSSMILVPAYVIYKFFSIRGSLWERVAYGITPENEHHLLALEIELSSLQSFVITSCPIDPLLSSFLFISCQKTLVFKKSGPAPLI
Experiment [6] has the same target. The experiment can be described thus: Selectivity ratio towards Norepinephrine and to that of dopamine transporter.
For experiment [7], the target named is Norepinephrine transporter (Rattus norvegicus, UniProt Q9WTR4). The experiment in a line: Compound was tested for the inhibition of norepinephrine [3H]NE reuptake into rat cortical membranes. The format is cell membranes, Membrane.
Sequence of Norepinephrine transporter (Q9WTR4 whole entry): as the sequence (Q9WTR4 as listed by the source) above
Experiment [8] is filed under the species Rattus norvegicus. The experiment in a line: Compound was tested for the inhibition of [3H]DA reuptake into dopamine transporter in rat striatal tissue. The format is functional, Striatum.

SMILES strings stand for the structures. Some results are limits rather than exact numbers.

Sequence of Sodium-dependent serotonin transporter (P31652 whole entry): as the sequence (P31652 whole entry, looked up) above

Regarding `N=c1scc(-c2ccc(Cl)cc2)n1-c1cccc(C(F)(F)F)c1`, the Selectivity ratio was found to be 3.94 in experiment [1], 0.065 in experiment [5] and 0.26 in experiment [6]. Besides, the inhibition constant Ki was 0.101 µM in experiment [2], 0.398 µM in experiment [3], 0.086 µM in experiment [4] and 0.026 µM in experiment [7].

Consider `N=c1scc(-c2ccc(Cl)cc2)n1-c1ccccc1F`, for which the Selectivity ratio in experiment [1] was found to be 6.69; in experiment [5], 0.026; in experiment [6], 0.17. Further, the inhibitory constant (Ki) amounted to 0.21 µM in experiment [2], 1.41 µM in experiment [3], 0.189 µM in experiment [4] and 0.036 µM in experiment [7].

For the compound `N=c1scc(-c2ccc(Cl)cc2)n1-c1ccccc1N1CCOCC1`, the figures for the Selectivity ratio in experiment [1], in experiment [5] and in experiment [6] were 0.006, 52.1 and 0.29, respectively. The Ki in experiment [8] worked out at 76.4 µM; in experiment [3], 0.424 µM; in experiment [4] it was 42 µM; in experiment [7] it was 22.1 µM.

Regarding `CC1C(=O)N=CC(c2ccccc2)=C1c1ccccc1` (stereo not drawn), the inhibition constant Ki in experiment [4] is more than 1 µM.

In the case of `c1ccc(-c2nccnc2-c2ccccc2)cc1`, the inhibition constant (Ki) in experiment [4] is more than 1 µM.

As for `N=c1scc(-c2ccc(Cl)cc2)n1-c1ccc(Cl)cc1Cl`, the Selectivity ratio in experiment [1] was 3.32; in experiment [5], 0.17; in experiment [6], 0.55. For the same compound, the Ki in experiment [2] worked out at 0.254 µM; in experiment [3] it was 0.843 µM; in experiment [4], 0.533 µM; in experiment [7], 0.141 µM.

As for `Cc1cc(-n2c(-c3c(F)cccc3F)csc2=N)ccc1Cl`, the Selectivity ratio in experiment [1] stood at 4.25; in experiment [5] it was 0.2; in experiment [6] it was 0.84. Also, the Ki came out at 0.102 µM in experiment [2], 0.433 µM in experiment [3], 0.048 µM in experiment [4] and 0.086 µM in experiment [7].

For the compound `N=c1scc(-c2ccc(Br)cc2)n1-c1cccc(C(F)(F)F)c1`, the values for the Selectivity ratio in experiment [1], in experiment [5] and in experiment [6] were 0.56, 2.09 and 1.17, respectively. The inhibition constant Ki was 0.12 µM in experiment [2], 0.067 µM in experiment [3], 0.071 µM in experiment [4] and 0.14 µM in experiment [7].

`Cc1cc(-c2csc(=N)n2-c2ccc(Cl)cc2)ccc1Cl`: the Selectivity ratio in experiment [1] was 9.4; in experiment [5], 0.44; in experiment [6], 4.1. Moreover, the Ki in experiment [2] was 0.023 µM; in experiment [3], 0.225 µM; in experiment [4], 0.024 µM; in experiment [7], 0.099 µM.

For `Cc1ccc(-c2csc(=N)n2-c2ccc(Cl)cc2)cc1`, the results for the Selectivity ratio in experiment [1], in experiment [5] and in experiment [6] were 15.3, 0.31 and 4.68, respectively. For the same compound, the Ki is 0.171 µM in experiment [2], 2.62 µM in experiment [3], 0.124 µM in experiment [4] and 0.801 µM in experiment [7].
